Reference: the NIST ThermoML archive (doi:10.1021/acs.jced.9b00540)
Numbers after ± are expanded uncertainties.

Assay: xn = mol fraction of the nth substance listed
Details: Liquid

For `CCOC(F)(C(F)(F)C(F)(F)C(F)(F)F)C(F)(C(F)(F)F)C(F)(F)F` (stereo not given) [2-trifluoromethyl-3-ethoxydodecafluorohexane] + CC(C)OC(C)C, the viscosity (313.15 K, 100000 kPa, Falling or rolling sphere viscometry, x1 = 0.75) was 2.663 ± 0.059 mPa·s, the viscosity (313.15 K, 100000 kPa, Falling or rolling sphere viscometry, x1 = 1) was 4.307 ± 0.096 mPa·s and the viscosity (333.15 K, 100 kPa, Capillary tube (Ostwald / Ubbelohde) method, x1 = 0.25) was 0.311 ± 0.007 mPa·s. The viscosity (333.15 K, 100 kPa, Capillary tube (Ostwald / Ubbelohde) method, x1 = 0.375) was 0.356 ± 0.008 mPa·s, the viscosity (333.15 K, 100 kPa, Capillary tube (Ostwald / Ubbelohde) method, x1 = 0.5) was 0.416 ± 0.009 mPa·s and the viscosity (333.15 K, 100 kPa, Capillary tube (Ostwald / Ubbelohde) method, x1 = 0.625) was 0.486 ± 0.01 mPa·s. It also gave a viscosity (333.15 K, 100 kPa, Capillary tube (Ostwald / Ubbelohde) method, x1 = 0.75) of 0.574 ± 0.012 mPa·s, a viscosity (333.15 K, 100 kPa, Capillary tube (Ostwald / Ubbelohde) method, x1 = 1) of 0.739 ± 0.016 mPa·s and a viscosity (333.15 K, 20000 kPa, Falling or rolling sphere viscometry, x1 = 0.25) of 0.393 ± 0.009 mPa·s. It also gave a viscosity (333.15 K, 20000 kPa, Falling or rolling sphere viscometry, x1 = 0.375) of 0.488 ± 0.011 mPa·s, a viscosity (333.15 K, 20000 kPa, Falling or rolling sphere viscometry, x1 = 0.5) of 0.56 ± 0.012 mPa·s and a viscosity (333.15 K, 20000 kPa, Falling or rolling sphere viscometry, x1 = 0.625) of 0.644 ± 0.014 mPa·s. It also gave a viscosity (333.15 K, 20000 kPa, Falling or rolling sphere viscometry, x1 = 0.75) of 0.754 ± 0.017 mPa·s, a viscosity (333.15 K, 20000 kPa, Falling or rolling sphere viscometry, x1 = 1) of 1.032 ± 0.023 mPa·s and a viscosity (333.15 K, 40000 kPa, Falling or rolling sphere viscometry, x1 = 0.25) of 0.491 ± 0.011 mPa·s. The viscosity (333.15 K, 40000 kPa, Falling or rolling sphere viscometry, x1 = 0.375) was 0.604 ± 0.013 mPa·s, the viscosity (333.15 K, 40000 kPa, Falling or rolling sphere viscometry, x1 = 0.5) was 0.707 ± 0.015 mPa·s and the viscosity (333.15 K, 40000 kPa, Falling or rolling sphere viscometry, x1 = 0.625) was 0.826 ± 0.018 mPa·s. The viscosity (333.15 K, 40000 kPa, Falling or rolling sphere viscometry, x1 = 0.75) was 0.982 ± 0.022 mPa·s, the viscosity (333.15 K, 40000 kPa, Falling or rolling sphere viscometry, x1 = 1) was 1.41 ± 0.031 mPa·s and the viscosity (333.15 K, 60000 kPa, Falling or rolling sphere viscometry, x1 = 0.25) was 0.595 ± 0.013 mPa·s. The viscosity (333.15 K, 60000 kPa, Falling or rolling sphere viscometry, x1 = 0.375) was 0.735 ± 0.016 mPa·s, the viscosity (333.15 K, 60000 kPa, Falling or rolling sphere viscometry, x1 = 0.5) was 0.875 ± 0.019 mPa·s and the viscosity (333.15 K, 60000 kPa, Falling or rolling sphere viscometry, x1 = 0.625) was 1.035 ± 0.023 mPa·s. For the same compound, the viscosity (333.15 K, 60000 kPa, Falling or rolling sphere viscometry, x1 = 0.75) was 1.252 ± 0.027 mPa·s, the viscosity (333.15 K, 60000 kPa, Falling or rolling sphere viscometry, x1 = 1) was 1.87 ± 0.041 mPa·s and the viscosity (333.15 K, 80000 kPa, Falling or rolling sphere viscometry, x1 = 0.25) was 0.706 ± 0.015 mPa·s. It also gave a viscosity (333.15 K, 80000 kPa, Falling or rolling sphere viscometry, x1 = 0.375) of 0.884 ± 0.019 mPa·s, a viscosity (333.15 K, 80000 kPa, Falling or rolling sphere viscometry, x1 = 0.5) of 1.067 ± 0.023 mPa·s and a viscosity (333.15 K, 80000 kPa, Falling or rolling sphere viscometry, x1 = 0.625) of 1.277 ± 0.028 mPa·s. It also gave a viscosity (333.15 K, 80000 kPa, Falling or rolling sphere viscometry, x1 = 0.75) of 1.574 ± 0.034 mPa·s, a viscosity (333.15 K, 80000 kPa, Falling or rolling sphere viscometry, x1 = 1) of 2.427 ± 0.053 mPa·s and a viscosity (333.15 K, 100000 kPa, Falling or rolling sphere viscometry, x1 = 0.25) of 0.822 ± 0.018 mPa·s. The viscosity (333.15 K, 100000 kPa, Falling or rolling sphere viscometry, x1 = 0.375) was 1.051 ± 0.023 mPa·s, the viscosity (333.15 K, 100000 kPa, Falling or rolling sphere viscometry, x1 = 0.5) was 1.283 ± 0.028 mPa·s and the viscosity (333.15 K, 100000 kPa, Falling or rolling sphere viscometry, x1 = 0.625) was 1.557 ± 0.034 mPa·s. For the same compound, the viscosity (333.15 K, 100000 kPa, Falling or rolling sphere viscometry, x1 = 0.75) was 1.958 ± 0.043 mPa·s, the viscosity (333.15 K, 100000 kPa, Falling or rolling sphere viscometry, x1 = 1) was 3.105 ± 0.068 mPa·s and the viscosity (353.15 K, 100 kPa, Capillary tube (Ostwald / Ubbelohde) method, x1 = 0.75) was 0.465 ± 0.01 mPa·s. For the same compound, the viscosity (353.15 K, 100 kPa, Capillary tube (Ostwald / Ubbelohde) method, x1 = 1) was 0.576 ± 0.012 mPa·s, the viscosity (353.15 K, 20000 kPa, Falling or rolling sphere viscometry, x1 = 0.25) was 0.34 ± 0.007 mPa·s and the viscosity (353.15 K, 20000 kPa, Falling or rolling sphere viscometry, x1 = 0.375) was 0.399 ± 0.009 mPa·s. The viscosity (353.15 K, 20000 kPa, Falling or rolling sphere viscometry, x1 = 0.5) was 0.442 ± 0.01 mPa·s, the viscosity (353.15 K, 20000 kPa, Falling or rolling sphere viscometry, x1 = 0.625) was 0.499 ± 0.011 mPa·s and the viscosity (353.15 K, 20000 kPa, Falling or rolling sphere viscometry, x1 = 0.75) was 0.591 ± 0.013 mPa·s. It also gave a viscosity (353.15 K, 20000 kPa, Falling or rolling sphere viscometry, x1 = 1) of 0.799 ± 0.018 mPa·s, a viscosity (353.15 K, 40000 kPa, Falling or rolling sphere viscometry, x1 = 0.25) of 0.428 ± 0.009 mPa·s and a viscosity (353.15 K, 40000 kPa, Falling or rolling sphere viscometry, x1 = 0.375) of 0.508 ± 0.011 mPa·s. It also gave a viscosity (353.15 K, 40000 kPa, Falling or rolling sphere viscometry, x1 = 0.5) of 0.578 ± 0.013 mPa·s, a viscosity (353.15 K, 40000 kPa, Falling or rolling sphere viscometry, x1 = 0.625) of 0.66 ± 0.015 mPa·s and a viscosity (353.15 K, 40000 kPa, Falling or rolling sphere viscometry, x1 = 0.75) of 0.773 ± 0.017 mPa·s. The viscosity (353.15 K, 40000 kPa, Falling or rolling sphere viscometry, x1 = 1) was 1.084 ± 0.024 mPa·s, the viscosity (353.15 K, 60000 kPa, Falling or rolling sphere viscometry, x1 = 0.25) was 0.517 ± 0.011 mPa·s and the viscosity (353.15 K, 60000 kPa, Falling or rolling sphere viscometry, x1 = 0.375) was 0.622 ± 0.014 mPa·s. It also gave a viscosity (353.15 K, 60000 kPa, Falling or rolling sphere viscometry, x1 = 0.5) of 0.724 ± 0.016 mPa·s, a viscosity (353.15 K, 60000 kPa, Falling or rolling sphere viscometry, x1 = 0.625) of 0.836 ± 0.018 mPa·s and a viscosity (353.15 K, 60000 kPa, Falling or rolling sphere viscometry, x1 = 0.75) of 0.997 ± 0.022 mPa·s. The viscosity (353.15 K, 60000 kPa, Falling or rolling sphere viscometry, x1 = 1) was 1.418 ± 0.031 mPa·s, the viscosity (353.15 K, 80000 kPa, Falling or rolling sphere viscometry, x1 = 0.25) was 0.61 ± 0.013 mPa·s and the viscosity (353.15 K, 80000 kPa, Falling or rolling sphere viscometry, x1 = 0.375) was 0.739 ± 0.016 mPa·s. For the same compound, the viscosity (353.15 K, 80000 kPa, Falling or rolling sphere viscometry, x1 = 0.5) was 0.879 ± 0.019 mPa·s, the viscosity (353.15 K, 80000 kPa, Falling or rolling sphere viscometry, x1 = 0.625) was 1.025 ± 0.022 mPa·s and the viscosity (353.15 K, 80000 kPa, Falling or rolling sphere viscometry, x1 = 0.75) was 1.245 ± 0.027 mPa·s. The viscosity (353.15 K, 80000 kPa, Falling or rolling sphere viscometry, x1 = 1) was 1.808 ± 0.04 mPa·s, the viscosity (353.15 K, 100000 kPa, Falling or rolling sphere viscometry, x1 = 0.25) was 0.706 ± 0.015 mPa·s and the viscosity (353.15 K, 100000 kPa, Falling or rolling sphere viscometry, x1 = 0.375) was 0.855 ± 0.019 mPa·s. The viscosity (353.15 K, 100000 kPa, Falling or rolling sphere viscometry, x1 = 0.5) was 1.037 ± 0.022 mPa·s, the viscosity (353.15 K, 100000 kPa, Falling or rolling sphere viscometry, x1 = 0.625) was 1.223 ± 0.027 mPa·s and the viscosity (353.15 K, 100000 kPa, Falling or rolling sphere viscometry, x1 = 0.75) was 1.504 ± 0.033 mPa·s. For the same compound, the viscosity (353.15 K, 100000 kPa, Falling or rolling sphere viscometry, x1 = 1) was 2.265 ± 0.049 mPa·s.
